Measurements as given in article PMC9312238, “Novel Organoselenium Redox Modulators with Potential Anticancer, Antimicrobial, and Antioxidant Activities” (Antioxidants, 2022).
Where two headings read alike, the source gives them in different places.

Key:
MCF-7 cells = test: cells; type: cell-based, human; settings: for IC50: MTT, 24 h incubation, MCF-7 cells, read-out: MCF7 IC50; for MCF7 TI (IC50 WI-38 / IC50 MCF-7): therapeutic index, ratio of WI-38 IC50 to MCF-7 IC50
Experimental: (§1) Cells were obtained from the ATCC Company (VACSERA), Cairo, Egypt. MTT assay were performed according to the literature method. More details are in the Supporting Information.
(§2) Recently, OSe compounds gained much attention as possible drug candidates due to their various pharmacological properties. […] Therefore, the anticancer attributes of the newly prepared OSe compounds were estimated using the MTT assay against MCF-7 and HepG2 and compared with their respective cytotoxicity in WI-38 primary cells. The anthracycline drug doxorubicin was used as the standard. […] Moreover, the therapeutic index (TI) was also calculated (according to Equation (1)), which is considered a measure of the selectivity and safety of the synthesized compounds. (1) TI=IC50 for the normal WI38 cells/IC50 for the cancer cells […]
(§3) 1.1. The biological assays
(§4) 1.1.1. The anticancer activity
(§5) The breast adenocarcinoma (MCF-7), Hepatocellular carcinoma (HEPG-2), and nor-mal fibroblast (WI-38) cells were obtained from ATCC via Holding company for biological products and vaccines (VACSERA), Cairo, Egypt.
(§6) DMSO, and fetal bovine serum was obtained from Sigma Aldrich. Dulbecco’s modified Eagle’s medium was used as the culture medium for the cells, and the cytotoxicity was evaluated using the reported MTT assay. Doxorubicin was used as the positive reference, and the IC50 values were obtained from the corresponding dose-response curve.
(§7) This colorimetric assay is based on converting the yellow tetrazolium bromide (MTT) to a purple formazan derivative by mitochondrial succinate dehydrogenase in viable cells. […]
(§8) added were 100 units/ml penicillin and 100µg/ml streptomycin at 37 C in a 5% Co2 incu-bator. The cell lines were seeded in a 96-well plate at a density of 1.0x10^4 cells/well. at 37 C for 48 h under 5% Co2. After incubation, the cells were treated with different concentra-tions of compounds and incubated for 24 h. After 24 h of drug treatment, 20 µl of MTT solution at 5mg/ml was added and incubated for 4 h. Finally, dimethyl sulfoxide (DMSO) in the volume of 100 µl is added to each well to dissolve the purple formazan formed. The colorimetric assay is measured and recorded at an absorbance of 570 nm using a plate […]
(§9) The percentage of the relative cell viability was calculated as (A570 of treated samples/A570 of the untreated sample) X 100. […]

WI-38 cells = test: cells; type: cell-based, human; settings: MTT, 24 h incubation, normal WI-38 cells, read-out: WI38 IC50
Experimental: as §1, §2, §3, §4, §5, §6, §7, §8, §9

[1] = DPPH radical scavenging bioassay; type: biochemical; settings: for radical scavenging activity, DPPH assay: compound 1 mM in MeOH, read after 0.5 h at 517 nm; for IC50: concentration decreasing absorbance by 50%
Source text: (§10) The antioxidant activity was estimated by ABTS and DPPH bioassays, according to the reported literature method. More details are in the Supplementary Materials.
(§11) Recently, OSe compounds were thoroughly used as redox modulators to control many complicated diseases (e.g., cancer and neurodegenerative diseases). The DPPH and ABTS bioassays were extensively used as rapid tools for estimating the antioxidant potency of OSe compounds [50, 51]. Ascorbic acid was used as a standard control, and the antioxidant potency was measured by the ability of the compounds to decolorize the characteristic colors of the ABTS^. and DPPH^. radicals by following the colorimetric decline in absorbance at 734 and 517 nm, respectively (Figure 2).
Figure 2 Evaluation of the antioxidant properties of the OSe compounds employing the ABTS and DPPH assays. All measurements are mean ± SD. In the DPPH assay: absorbance was read after 0.5 h of mixing […] of DPPH with […] of OSe compounds (1 mM, MeOH) at 517 nm. In the ABTS assay: […] of each OSe compound (1 mM, phosphate-buffered methanol) was mixed with the ABTS solution (60 mM), and absorbance was monitored at 734 nm. […]
1.1.1. The antioxidant activity
The hydrogen atom or electron donation ability of the corresponding compounds was measured by estimating the bleaching of the purple color of a methanolic solution of DPPH [29]. This spectrophotometric assay uses stable DPPH. reagent. The sample was prepared by adding […] of the OSe compounds (1 mM in methanol) to […] DPPH in methanol. After 30 min of incubation in the dark, the absorbance was read against a blank at 517 nm. Ascorbic acid (vitamin C) and ebselen were used as standard antioxi-dants (positive control). A blank sample was run without DPPH. A negative control sam-ple was run using methanol instead of the sample. The radical scavenging activity was calculated using the following equation:
Inhibition%= (Ablank-Asample)/(Ablank)*100. (1)

[2] = ABTS radical scavenging bioassay; type: biochemical; settings: for radical scavenging activity, ABTS assay: compound 1 mM in phosphate-buffered methanol, 734 nm; for IC50: concentration decreasing absorbance by 50%
Source text: as §10, §11
Figure 2 Evaluation of the antioxidant properties of the OSe compounds employing the ABTS and DPPH assays. All measurements are mean ± SD. In the DPPH assay: absorbance was read after 0.5 h of mixing […] of DPPH with […] of OSe compounds (1 mM, MeOH) at 517 nm. In the ABTS assay: […] of each OSe compound (1 mM, phosphate-buffered methanol) was mixed with the ABTS solution (60 mM), and absorbance was monitored at 734 nm.
The antioxidant activity of the investigated compounds was assessed using 2,2’-az-ino-bis(3-ethylbenzothiazoline-6-sulphonic acid (ABTS) method. The radical cation derived from ABTS was prepared by the reaction of 60 mM ABTS solution with 0.3 M manganese dioxide solution in 0.1M phosphate buffer, pH 7. Then, the mixture was shaken, centrifuged, filtered, and the absorbance (Acontrol) of the resulting green-blue solu-tion (ABTS radical solution) was measured at wavelength 734 nm. Then, […] of 1 mg/ml test compound in phosphate-buffered methanol was added. The absorbance (Atest) was measured. The reduction in color intensity was expressed as % inhibition. The % inhibi-tion for each compound is calculated from the following equation
Inhibition% = (Acontrol-Asample)/(Acontrol)*100
Ascorbic acid (vitamin C) was used as a standard antioxidant (positive control). A blank sample was run without ABTS and using MeOH/phosphate buffer (1:1) instead of the sample. A negative control sample was run with MeOH/phosphate buffer (1:1) instead

| Compound | IC50 (MCF-7 cells; Homo sapiens, MCF7) [µM] | MCF7 TI (IC50 WI-38 / IC50 MCF-7) (MCF-7 cells) | IC50 (WI-38 cells; Homo sapiens) [µM] | radical scavenging activity, DPPH assay [1] [%] | radical scavenging activity, ABTS assay [2] [%] | melting point [°C] | IC50 [1] [µM] | IC50 [2] [µM] | IC50 (MCF-7 cells) [µM] | IC50 (WI-38 cells) [µM] |
| --- | --- | --- | --- | --- | --- | --- | --- | --- | --- | --- |
| O=C(C[Se]c1ccc(N2C(=O)CCC2=O)cc1)Nc1ccccc1 [Compound 14, 2-((4-(2,5-dioxopyrrolidin-1-yl)phenyl)selanyl)-N-phenylacetamide] | 17.1 ± 1.4 | 3.6 | 62 ± 3.6 | 77 | 81 | 159 to 161 | – | – | – | – |
| Nc1ccc([Se]CC(=O)N[C@@H](Cc2c[nH]c3ccccc23)C(=O)O)cc1 [Compound 6, (2-((4-aminophenyl)selanyl)acetyl)tryptophan] | 5.69 ± 0.4 | 5 | 28.4 ± 2.2 | 91 | 85 | 154 to 156 | 24.03 ± 0.23 | 31.92 ± 0.29 | – | – |
| 2-((4-(2-(3-hydroxynaphthalen-1(4H)-ylidene)hydrazinyl)phenyl)selanyl)-N-phenylacetamide [Compound 9] | – | 12 | – | 93 | 88 | – | 20.64 ± 0.14 | 28.87 ± 0.2 | 3.27 ± 0.2 | 39.3 ± 2.5 |
| O=C(O)CCC(=O)Nc1ccc([Se]CC(=O)Nc2ccccc2)cc1 [Compound 11, 4-oxo-4-((4-((2-oxo-2-(phenylamino)ethyl)selanyl)phenyl)amino)butanoic acid] | 21.2 ± 1.8 | 3.2 | 67.3 ± 3.9 | 76 | 74 | 163 to 165 | – | – | – | – |
| Nc1ccc([Se]CC(=O)Nc2ccccc2)cc1 [Compound 4, 2-((4-aminophenyl)selanyl)-N-phenylacetamide] | 11.3 ± 0.8 | 4.6 | 52.3 ± 3 | 80 | 78 | 121 to 122 | – | – | – | – |
| C[Se]c1ccc(NC(=O)CCC(=O)O)cc1 [Compound 16, 4-((4-(methylselanyl)phenyl)amino)-4-oxobutanoic acid] | 29.5 ± 2.2 | 0.7 | 22.5 ± 1.9 | 67 | 71 | 169.6 | – | – | – | – |
| C[Se]c1ccc(NC(=O)C=CC(=O)O)cc1 [Compound 15, 4-((4-(methylselanyl)phenyl)amino)-4-oxobut-2-enoic acid] | 7.03 ± 0.6 | 2.8 | 19.8 ± 1.5 | 87 | 84 | 171 | – | – | – | – |
| CCOc1ccc(NC(=O)C[Se]c2ccc(N)cc2)cc1 [Compound 5, 2-((4-aminophenyl)selanyl)-N-(4-ethoxyphenyl)acetamide] | 25.5 ± 2 | 4 | > 100 | 71 | 53 | 136 to 137 | – | – | – | – |
